# From paper PMC12867150, “A fungi-derived cyclic peptide enhances Th9-mediated antitumor immunity by targeting ZAP70 and SREBP1” (The Journal of Clinical Investigation, 2025)
# Columns and labels:
# [1] = test system: AKT, mTOR, and NF-κB signaling components; test: Immunoblot of AKT, mTOR and NF-κB components (S7D); assay type: cell-based, mouse; conditions: result in words
# Procedure: Detailed lysis conditions, SDS–PAGE and transfer procedures, primary/secondary antibodies (including clones and catalog numbers), molecular weight markers, ECL detection, and ImageJ (NIH) quantification are described in Supplemental Methods.
# MH9A4, Biolegend, Cat. No. 507605, PE/Cy7, clone MH9A4, Biolegend, Cat. No. […]
# clone Mab11, Biolegend, Cat. No. 502908), Perforin (APC, clone dG9, Biolegend, Cat.
# Flow cytometric acquisition was performed using a BD Fortessa or Cytek Aurora cytometer. Data were analyzed with FlowJo software (v10.8.1 or newer). Fluorescence compensation, isotype-matched controls, and fluorescence-minus-one (FMO) controls were applied as appropriate for multicolor panel validation.
# Cells were washed twice with PBS and lysed in 1 × lysis buffer (NCM, Cat. No.
# WB3100) supplemented with a protease inhibitor cocktail (Solarbio, Cat. No. P1260).
# Protein lysates were separated by SDS-polyacrylamide gel electrophoresis (SDS-PA G E ; YEASEN, Cat. No. 20325ES62) and transferred to PVDF membranes for […]
# Membranes were probed with the following primary antibodies: ERK1/2 (clone […]
# BioLegend, Cat. No. 369502), MEK1/2 (clone L38C12, Cell Signaling Technology, Cat.
# No. 4694S), phospho -MEK1/2 (clone 41G9, Cell Signaling Technology, Cat. No. […]
# (Proteintech, Cat. No. 10745 -1-AP), Total Akt (Cell Signaling Technolo gy, Cat. No. […]
# IL-6 = test: Serum IL-6 by ELISA after ACT (S1B); assay type: in vivo, mouse; conditions: for IL-6 of blood from mouse: Supplemental Figure 1B
# Procedure: Peripheral blood was collected from mouse tail veins at predefined time points in the tumor model. Samples were allowed to clot at 4°C for 1 hour and were then centrifuged at 600g for 25 minutes to obtain serum. Serum IL-6 levels were measured using an ELISA kit (Invitrogen; catalog 88-7064) according to the manufacturer’s instructions.
# Days after ACT Days after ACT
# Figure S1. EpA enhances immune responses. […]
# Serum IL-6 levels after ACT, measured by ELISA on days 5, 10, 15, and 20. (C–E) […]
# Statistical analysis was performed using two-way ANOVA with Tukey’s post hoc test (A), one-way ANOVA with Tukey’s post hoc test (B) or two-tailed unpaired Student’s t-test (D and G–M). ns, not significant. *p < 0.05, **p < 0.01, ****p < 0.0001.
# (also on this page, place not known: Mouse weight (g) CtrlEpA CtrlEpA CtrlEpA0 I CD45.1+ T cells (%) CtrlEpA CD4+ T cells (%) CtrlEpA CtrlEpA CtrlEpA FSC CD8 CD8 FSC FSC FSC BNumber of CD45.1+ T cells (×103 per mgĎ Number of CD4+ T cells (×104 per mgĎ DC (%)NK cells (%) NK cells (%) DC (%) Number of DC (×103 per mg) Number of NK cells (×105) Number of NK cells (×103 per mg) Number of DC (×105) FSC FSC FSC CD8 CtrlEpA CtrlEpA CtrlEpA CD8+ T cells (%) Number of CD8+ T cells (×104 per mgĎ nsns ns nsns ns 40 IL-6 (pg/ml))
substance,measurement,setting,value
anteiso-C15 Leu7 surfactin [EpA],AKT and NF-κB component phosphorylation,[1],not of AKT or NF-κB components
same,total and phosphorylated mTOR levels,[1],remained unchanged
same,IL-6 of blood from mouse,"IL-6; Day5, replicate 1",26.4444 pg/mL
same,IL-6 of blood from mouse,"IL-6; Day5, replicate 2",18 pg/mL
same,IL-6 of blood from mouse,"IL-6; Day5, replicate 3",22.6667 pg/mL
same,IL-6 of blood from mouse,"IL-6; Day5, replicate 4",28 pg/mL
same,IL-6 of blood from mouse,"IL-6; Day10, replicate 1",22.6667 pg/mL
same,IL-6 of blood from mouse,"IL-6; Day10, replicate 2",21.3333 pg/mL
same,IL-6 of blood from mouse,"IL-6; Day10, replicate 3",24.2222 pg/mL
same,IL-6 of blood from mouse,"IL-6; Day10, replicate 4",22 pg/mL
same,IL-6 of blood from mouse,"IL-6; Day15, replicate 1",19.5556 pg/mL
same,IL-6 of blood from mouse,"IL-6; Day15, replicate 2",16 pg/mL
same,IL-6 of blood from mouse,"IL-6; Day15, replicate 3",11.3333 pg/mL
same,IL-6 of blood from mouse,"IL-6; Day15, replicate 4",20 pg/mL
same,IL-6 of blood from mouse,"IL-6; Day20, replicate 1",21.7778 pg/mL
same,IL-6 of blood from mouse,"IL-6; Day20, replicate 2",14.8889 pg/mL
same,IL-6 of blood from mouse,"IL-6; Day20, replicate 3",14.4445 pg/mL
same,IL-6 of blood from mouse,"IL-6; Day20, replicate 4",26.8889 pg/mL
same,serum IL-6 levels,"IL-6; EpA-Th9 therapy vs control, result in words",No significant differences
